Experimental findings from US20240246913A1, “2-CARBOXYL-INDOLE INHIBITORS OF METALLO-BETA-LACTAMASES” (Oxford University Innovation Limited, priority 2021, published 2024) are described below.

In one series the target is VIM-2 (Escherichia coli, UniProt Q5U7L7). The series can be described thus: MBL inhibition, FC-5 fluorescence assay, VIM-2. The class given is biochemical. Particulars: FC-5 cephalosporin substrate, ranges of obtained pIC50, read-out: pIC50 VIM-2 (converted). In a few lines: (§1)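 Fluorescence read-out (380 nm excitation, 460 nm emission) tracks fluorophore liberated when each enzyme breaks down cephalosporin substrate FC-5. Initial rates across inhibitor concentrations, each run in quadruplicate on the plate, give normalized curves fitted with a variable Hill slope.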

Another series has as its target VIM-1 (Pseudomonas aeruginosa, UniProt A0A0F7KYQ8). The series can be described thus: MBL inhibition, FC-5 fluorescence assay, VIM-1. The class given is biochemical. Particulars: FC-5 cephalosporin substrate, ranges of obtained pIC50, read-out: pIC50 VIM-1 (converted). In a few lines: as §1
The target of a further series is IMP-1 (Serratia marcescens, UniProt P52699). The experiment in a line: MBL inhibition, FC-5 fluorescence assay, IMP-1. The format is biochemical. Particulars: FC-5 cephalosporin substrate, fluorescence; ranges of obtained pIC50; read-out: pIC50 IMP-1 (converted). An outline of the steps:
as §1

The next series addresses NDM-1 (Klebsiella pneumoniae, UniProt C7C422). The series can be described thus: MBL inhibition, FC-5 fluorescence assay, NDM-1. The class given is biochemical. The note with it: FC-5 cephalosporin substrate, fluorescence; ranges of obtained pIC50; read-out: pIC50 NDM-1 (converted). In a few lines:
as §1

The next series has as its system Escherichia coli NDM-1. The series can be described thus: Antibiotic susceptibility testing (MIC), EC NDM-1. Particulars: agar or broth dilution (CLSI/EUCAST). The class given is cell-based. Here is the method:
(§2) Antibiotic susceptibility testing was performed using the agar or broth dilution method, in line with the Clinical and Laboratory Standards Institute (CLSI) and European Committee on Antimicrobial Susceptibility Testing (EUCAST) requirements.
On the technique in general: Broth dilution looks for growth in wells or tubes with falling amounts of substance.

In series [1] the test system is Acinetobacter baumannii NDM-1. The experiment in a line: Antibiotic susceptibility testing (MIC), AB NDM-1. The format is cell-based. The note with it: agar or broth dilution (CLSI/EUCAST). The protocol:
as §2

Another series has as its system Escherichia coli NDM-7. The experiment in a line: Antibiotic susceptibility testing (MIC), EC NDM-7. The class given is cell-based. Particulars: agar or broth dilution (CLSI/EUCAST). Here is the method:
as §2

The nature of series [2]: Plasma protein binding, equilibrium dialysis, human plasma. The format is in vitro ADME. Particulars: pH 7.4, equilibrium dialysis (RED) 4 hours at 37° C., read-out: Plasma protein binding, fu, Human. The protocol:
The fraction of unbound compound (fu) in plasma from human or other animal species was determined by equilibrium dialysis at 37° C. for 4 hours using the Rapid Equilibrium Dialysis (RED) device (ThermoFisher Scientific). The test compound at a concentration of 10 μM was added to plasma and dialyzed against isotonic phosphate buffer (67 mM, pH 7.4) over 4 hours at 37° C. After dialysis, compound concentrations in buffer and plasma were quantified by LC-MS/MS. In parallel the stability of the compound in plasma was determined by incubating drug-spiked plasma (10 μM) at 37° C. for 4 hours, meanwhile the control plasma sample was kept in the freezer. The concentration of the compound in both samples was quantified by LC-MS/MS (Waters Corp, Milford, MA, USA).
A general note: Equilibrium dialysis compares concentrations on both sides of a semipermeable membrane.

Chain of NDM-1 (C7C422 29-270, looked up, species assumed): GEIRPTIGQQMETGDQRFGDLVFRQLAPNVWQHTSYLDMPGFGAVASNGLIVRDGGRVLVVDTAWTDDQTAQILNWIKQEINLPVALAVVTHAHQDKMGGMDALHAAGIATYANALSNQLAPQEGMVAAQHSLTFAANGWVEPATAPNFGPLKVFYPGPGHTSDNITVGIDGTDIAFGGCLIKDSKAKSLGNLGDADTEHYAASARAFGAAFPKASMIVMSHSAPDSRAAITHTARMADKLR
Chain of IMP-1 (P52699 19-246, looked up, species assumed): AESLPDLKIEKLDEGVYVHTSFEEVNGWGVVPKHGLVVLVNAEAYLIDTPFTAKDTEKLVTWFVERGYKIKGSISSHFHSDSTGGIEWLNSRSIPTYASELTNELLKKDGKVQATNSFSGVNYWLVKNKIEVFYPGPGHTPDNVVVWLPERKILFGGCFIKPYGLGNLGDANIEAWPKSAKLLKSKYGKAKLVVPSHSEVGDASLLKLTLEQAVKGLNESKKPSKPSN

On to `COc1cc(-c2c(C(=O)O)[nH]c3c([C@H](C)N4C[C@]5(C[C@@H](CN)C5)OC4=O)cccc23)cnc1O` [IC-25, 7-((S)-1-((2S,4r)-2-(aminomethyl)-6-oxo-5-oxa-7-azaspiro[3.4]octan-7-yl)ethyl)-3-(6-hydroxy-5-methoxypyridin-3-yl)-1H-indole-2-carboxylic acid], for which the IC50 was 0.1 to 1 nM at VIM-2, more than 10 nM at VIM-1, more than 10 nM at IMP-1 and more than 10 nM on NDM-1. Moreover, in the series with Escherichia coli NDM-1, the “MIC values EC NDM-1” value was “C (C = MIC values > 8)”. Also, the “MIC values AB NDM-1” value in series [1] is reported as “C (C = MIC values > 8)”. Also, in the series on Escherichia coli NDM-7, the “MIC values EC NDM-7” value was “B (B MIC values 2 ÷ 8)”. The fraction unbound at 4 h, 10 μM in series [2] is more than 0.25.

In the case of `C[C@@H](c1cccc2c(-c3c[nH]c(=O)c(F)c3)c(C(=O)O)[nH]c12)N1C[C@]2(C[C@@H](CN)C2)OC1=O` [IC-26, 7-((1S)-1-(2-(aminomethyl)-6-oxo-5-oxa-7-azaspiro[3.4]octan-7-yl)ethyl)-3-(5-fluoro-6-oxo-1,6-dihydropyridin-3-yl)-1H-indole-2-carboxylic acid], the IC50 at VIM-2 is 0.1 to 1 nM; on VIM-1, more than 10 nM; at IMP-1 it was more than 10 nM; on NDM-1, 1 to 10 nM. Also, the “MIC values EC NDM-1” value with Escherichia coli NDM-1 was “B (B MIC values 2 ÷ 8)”. For the same compound, the “MIC values AB NDM-1” value in series [1] was “C (C = MIC values > 8)”. Also, in the series on Escherichia coli NDM-7, the “MIC values EC NDM-7” value is on record as “A (A = MIC values ≤ 1)”. The fraction unbound at 4 h, 10 μM in series [2] was 0.05 to 0.25.

In the case of `COc1ncc(-c2c(C(=O)O)[nH]c3c([C@H](C)N4C[C@]5(C[C@@H](CN)C5)OC4=O)cccc23)cc1O` [IC-27, (S)-7-(1-(2-(aminomethyl)-6-oxo-5-oxa-7-azaspiro[3.4]octan-7-yl)ethyl)-3-(5-hydroxy-6-methoxypyridin-3-yl)-1H-indole-2-carboxylic acid], the IC50 on VIM-2 was less than 0.1 nM; at VIM-1 it was 1 to 10 nM; at IMP-1, more than 10 nM; at NDM-1, 0.1 to 1 nM. Further, the “MIC values EC NDM-1” value against Escherichia coli NDM-1 is reported as “B (B MIC values 2 ÷ 8)”. The “MIC values AB NDM-1” value in series [1] was “B (B MIC values 2 ÷ 8)”. For the same compound, the “MIC values EC NDM-7” value with Escherichia coli NDM-7 is “A (A = MIC values ≤ 1)”. For the same compound, in series [2], the fraction unbound at 4 h, 10 μM is 0.05 to 0.25.

For the compound `C[C@@H](c1cccc2c(-c3cnn(C)c(=O)c3)c(C(=O)O)[nH]c12)N1C[C@]2(C[C@@H](CN)C2)OC1=O` [IC-28, 7-((S)-1-((2S,4r)-2-(aminomethyl)-6-oxo-5-oxa-7-azaspiro[3.4]octan-7-yl)ethyl)-3-(1-methyl-6-oxo-1,6-dihydropyridazin-4-yl)-1H-indole-2-carboxylic acid], the IC50 at VIM-2 was 0.1 to 1 nM; on VIM-1 it was 1 to 10 nM; at IMP-1, more than 10 nM; at NDM-1, 1 to 10 nM. The “MIC values EC NDM-1” value against Escherichia coli NDM-1 is given as “B (B MIC values 2 ÷ 8)”. Further, the “MIC values AB NDM-1” value in series [1] is “C (C = MIC values > 8)”. Further, in the series on Escherichia coli NDM-7, the “MIC values EC NDM-7” value is given as “A (A = MIC values ≤ 1)”. The fraction unbound at 4 h, 10 μM in series [2] was 0.05 to 0.25.

`C[C@@H](c1cccc2c(-c3cnc(O)c(O)c3)c(C(=O)O)[nH]c12)N1C[C@]2(C[C@@H](CN)C2)OC1=O` [IC-29, 7-((S)-1-((2S,4r)-2-(aminomethyl)-6-oxo-5-oxa-7-azaspiro[3.4]octan-7-yl)ethyl)-3-(5,6-dihydroxypyridin-3-yl)-1H-indole-2-carboxylic acid]: the IC50 on VIM-2 was 1 to 10 nM; at VIM-1, more than 10 nM; at IMP-1 it was more than 10 nM; at NDM-1, more than 10 nM. Besides, the “MIC values EC NDM-1” value against Escherichia coli NDM-1 is reported as “B (B MIC values 2 ÷ 8)”. Further, the “MIC values AB NDM-1” value in series [1] is “C (C = MIC values > 8)”. Besides, in the series on Escherichia coli NDM-7, the “MIC values EC NDM-7” value was “A (A = MIC values ≤ 1)”. Moreover, the fraction unbound at 4 h, 10 μM in series [2] fell in the range of 0.005 to 0.05.

With `C[C@@H](c1cccc2c(-c3ccn(C)c(=O)c3)c(C(=O)O)[nH]c12)N1C[C@]2(C[C@@H](CN)C2)OC1=O` [IC-32, 3-(1-methyl-2-oxo-1,2-dihydropyridin-4-yl)-7-[(1S)-1-[(2r,4r)-2-(aminomethyl)-6-oxo-5-oxa-7-azaspiro[3.4]octan-7-yl]ethyl]-1H-indole-2-carboxylic acid], the IC50 was 0.1 to 1 nM on VIM-2, 1 to 10 nM at VIM-1, more than 10 nM at IMP-1 and 0.1 to 1 nM at NDM-1. In addition, in the series with Escherichia coli NDM-1, the “MIC values EC NDM-1” value is “B (B MIC values 2 ÷ 8)”. Also, the “MIC values AB NDM-1” value in series [1] is recorded as “B (B MIC values 2 ÷ 8)”. Moreover, the “MIC values EC NDM-7” value against Escherichia coli NDM-7 is “A (A = MIC values ≤ 1)”. In addition, in series [2], the fraction unbound at 4 h, 10 μM was more than 0.25.

On to `C[C@@H](c1cccc2c(-c3cn[nH]c(=O)c3)c(C(=O)O)[nH]c12)N1C[C@]2(C[C@@H](CN)C2)OC1=O` [IC-33, 3-(6-oxo-1,6-dihydropyridazin-4-yl)-7-[(1S)-1-[(2r,4r)-2-(aminomethyl)-6-oxo-5-oxa-7-azaspiro[3.4]octan-7-yl]ethyl]-1H-indole-2-carboxylic acid], for which the IC50 was 0.1 to 1 nM on VIM-2, 1 to 10 nM at VIM-1, more than 10 nM on IMP-1 and 1 to 10 nM on NDM-1. Further, the “MIC values EC NDM-1” value against Escherichia coli NDM-1 was “A (A = MIC values ≤ 1)”. In series [1], the “MIC values AB NDM-1” value was “B (B MIC values 2 ÷ 8)”. Moreover, in the series with Escherichia coli NDM-7, the “MIC values EC NDM-7” value is listed as “A (A = MIC values ≤ 1)”. Moreover, the fraction unbound at 4 h, 10 μM in series [2] lay in the range of 0.05 to 0.25.

For the compound `C[C@@H](c1cccc2c(-c3ccnc(N)c3)c(C(=O)O)[nH]c12)N1C[C@]2(C[C@@H](CN)C2)OC1=O` [IC-34, 3-(2-Aminopyridin-4-yl)-7-[(1S)-1-[(2r,4r)-2-(aminomethyl)-6-oxo-5-oxa-7-azaspiro[3.4]octan-7-yl]ethyl]-1H-indole-2-carboxylic acid], the IC50 at VIM-2 was 1 to 10 nM; on VIM-1 it was 1 to 10 nM; on IMP-1, more than 10 nM; at NDM-1, more than 10 nM. The “MIC values EC NDM-1” value against Escherichia coli NDM-1 was “B (B MIC values 2 ÷ 8)”. Besides, the “MIC values AB NDM-1” value in series [1] is listed as “C (C = MIC values > 8)”. Further, the “MIC values EC NDM-7” value against Escherichia coli NDM-7 was “A (A = MIC values ≤ 1)”. In series [2], the fraction unbound at 4 h, 10 μM was more than 0.25.

Consider `CNc1cc(-c2c(C(=O)O)[nH]c3c([C@H](C)N4C[C@]5(C[C@@H](CN)C5)OC4=O)cccc23)ccn1` [IC-35, 3-[2-(methylamino)pyridin-4-yl]-7-[(1S)-1-[(2r,4r)-2-(aminomethyl)-6-oxo-5-oxa-7-azaspiro[3.4]octan-7-yl]ethyl]-1H-indole-2-carboxylic acid], for which the IC50 is 0.1 to 1 nM on VIM-2, 1 to 10 nM at VIM-1, more than 10 nM on IMP-1 and more than 10 nM on NDM-1. Further, the “MIC values EC NDM-1” value against Escherichia coli NDM-1 is “A (A = MIC values ≤ 1)”. For the same compound, the “MIC values AB NDM-1” value in series [1] is reported as “C (C = MIC values > 8)”. Moreover, the “MIC values EC NDM-7” value in the series on Escherichia coli NDM-7 is “A (A = MIC values ≤ 1)”. Besides, the fraction unbound at 4 h, 10 μM in series [2] was more than 0.25.

Take `C=C(CC(=O)NCCc1c[nH]cn1)c1cccc2c(-c3ccc(CS(C)(=O)=O)c(F)c3)c(C(=O)O)[nH]c12` [IC-106, 7-(4-((2-(1H-Imidazol-4(5)-yl)ethyl)amino)-4-oxobut-1-en-2-yl)-3-(3-fluoro-4-((methylsulfonyl)-methyl)phenyl)-1H-indole-2-carboxylic acid]: the IC50 at VIM-2, at VIM-1, on IMP-1 and on NDM-1 was more than 10 nM each time. Moreover, the “MIC values EC NDM-1” value in the series on Escherichia coli NDM-1 was “C (C = MIC values > 8)”. For the same compound, in series [1], the “MIC values AB NDM-1” value is given as “C (C = MIC values > 8)”. Further, the “MIC values EC NDM-7” value in the series on Escherichia coli NDM-7 was “C (C = MIC values > 8)”.
